Experimental data taken from ChEMBL document CHEMBL1127227, “1H-1,2,4-triazole angiostensin II receptor antagonists: qC-linkedq analogs of SC-50560” (Bioorg Med Chem Lett, 1994).
Several values for one entry are separate records, joined by “and”; a condition that tells them apart may be missing. Identical values can stand only once.

Assays:
Oryctolagus cuniculus = species: Oryctolagus cuniculus; assay: Antagonism of AII-contracted rabbit aortic rings; assay type: functional, organism-based, Aorta; details: for Kb: Oryctolagus cuniculus, Aorta, read-out: pA2 (converted)
Angiotensin II receptor = biological target: T1, Angiotensin II receptor (Rattus norvegicus, UniProt P29089+P25095+P35351); assay: Inhibition of [125I]- AII binding to rat uterine membrane angiotensin II receptor
T1 sequence (P29089 whole entry): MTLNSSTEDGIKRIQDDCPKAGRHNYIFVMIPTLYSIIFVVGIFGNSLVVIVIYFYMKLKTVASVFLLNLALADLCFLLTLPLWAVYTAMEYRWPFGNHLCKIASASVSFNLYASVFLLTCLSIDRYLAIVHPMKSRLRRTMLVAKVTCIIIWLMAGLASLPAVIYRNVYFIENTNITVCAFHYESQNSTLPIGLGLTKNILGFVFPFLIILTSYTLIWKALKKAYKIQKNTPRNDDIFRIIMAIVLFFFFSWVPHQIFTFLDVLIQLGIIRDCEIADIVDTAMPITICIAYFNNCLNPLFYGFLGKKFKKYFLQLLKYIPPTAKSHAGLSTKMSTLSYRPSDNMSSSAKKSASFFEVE
T1 sequence (P25095 whole entry): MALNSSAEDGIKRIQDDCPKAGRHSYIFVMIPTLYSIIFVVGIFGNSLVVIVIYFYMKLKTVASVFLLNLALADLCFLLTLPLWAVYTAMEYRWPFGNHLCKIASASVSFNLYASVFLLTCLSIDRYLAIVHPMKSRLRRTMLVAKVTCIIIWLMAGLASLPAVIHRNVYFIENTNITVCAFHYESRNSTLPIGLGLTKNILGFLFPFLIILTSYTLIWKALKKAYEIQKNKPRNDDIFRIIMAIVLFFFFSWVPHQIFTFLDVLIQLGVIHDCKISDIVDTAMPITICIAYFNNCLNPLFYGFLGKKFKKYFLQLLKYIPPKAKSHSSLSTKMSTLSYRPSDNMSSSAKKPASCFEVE
T1 sequence (P35351 whole entry): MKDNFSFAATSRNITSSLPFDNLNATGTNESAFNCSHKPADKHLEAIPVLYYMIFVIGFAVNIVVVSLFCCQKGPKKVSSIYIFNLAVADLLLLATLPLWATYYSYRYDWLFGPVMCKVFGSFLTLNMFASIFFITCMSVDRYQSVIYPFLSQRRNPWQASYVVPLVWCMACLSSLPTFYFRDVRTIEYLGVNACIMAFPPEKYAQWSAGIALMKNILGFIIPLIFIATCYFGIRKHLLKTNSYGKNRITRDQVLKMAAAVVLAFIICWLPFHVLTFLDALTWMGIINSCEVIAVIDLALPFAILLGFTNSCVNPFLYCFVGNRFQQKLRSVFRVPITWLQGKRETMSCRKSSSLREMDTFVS

Structure (SMILES): CCCCn1nc(C(F)(F)CCC)nc1Cc1ccc(-c2ccccc2-c2nn[nH]n2)cc1
- Kb (Oryctolagus cuniculus): 10 nM
- IC50 (Angiotensin II receptor): 40 nM

Structure (SMILES): CCCCc1nc(C(O)c2ccc(-c3ccccc3-c3nn[nH]n3)cc2)n(CCCC)n1 (stereo not drawn)
- Kb (Oryctolagus cuniculus): 251 nM
- IC50 (Angiotensin II receptor): 1800 nM

Structure (SMILES): CCCCn1nc(CCc2ccccc2)nc1Cc1ccc(-c2ccccc2-c2nn[nH]n2)cc1
- Kb (Oryctolagus cuniculus): 12.6 nM
- IC50 (Angiotensin II receptor): 9.5 nM

Structure (SMILES): CCCCc1nc(CCCC)n(Cc2ccc(-c3ccccc3-c3nn[nH]n3)cc2)n1
- Kb (Oryctolagus cuniculus): 2 nM

Structure (SMILES): CCCCc1nc(C(C)c2ccc(-c3ccccc3-c3nn[nH]n3)cc2)n(CCCC)n1 (stereo not drawn)
- IC50 (Angiotensin II receptor): 29000 nM

Structure (SMILES): CCCCc1nc(C(=O)c2ccc(-c3ccccc3-c3nn[nH]n3)cc2)n(CCCC)n1
- IC50 (Angiotensin II receptor): 32000 nM

Structure (SMILES): CCCCc1nc(C(F)(F)c2ccc(-c3ccccc3-c3nn[nH]n3)cc2)n(CCCC)n1
- IC50 (Angiotensin II receptor): 710 nM

Structure (SMILES): CCCCc1nc(Cc2ccc(-c3ccccc3-c3nn[nH]n3)cc2)nn1CCCC
- pA2 (Oryctolagus cuniculus): 5.3
- Kb (Oryctolagus cuniculus): 10000 nM
- IC50 (Angiotensin II receptor): 12000 nM and 6700 nM

Structure (SMILES): CCCCc1nc(Cc2ccc(-c3ccccc3C(=O)O)cc2)n(CCCC)n1
- Kb (Oryctolagus cuniculus): 79.4 nM
- IC50 (Angiotensin II receptor): 240 nM

Structure (SMILES): CCCCc1nc(Cc2ccc(-c3ccccc3-c3nn[nH]n3)cc2)n(CCCC)n1
- Kb (Oryctolagus cuniculus): 3.16 nM
- IC50 (Angiotensin II receptor): 16 nM

Structure (SMILES): CCCCc1nc(Cc2ccc(-c3ccccc3-c3nnn(C(c4ccccc4)(c4ccccc4)c4ccccc4)n3)cc2)n(CCCC)n1
- IC50 (Angiotensin II receptor): 140 nM
